Values belong to the compound of their own block, whether it stands above or below them. The source made the active and inactive calls.
Experiments:
[1] = biological target: T1, Apoptotic protease-activating factor 1 (Homo sapiens, UniProt O14727); assay: activation of Apaf-1 mediated apoptosis – fluorescent, uHTS hits, dose response (AID 588554); type: functional
T1 sequence (O14727 whole entry): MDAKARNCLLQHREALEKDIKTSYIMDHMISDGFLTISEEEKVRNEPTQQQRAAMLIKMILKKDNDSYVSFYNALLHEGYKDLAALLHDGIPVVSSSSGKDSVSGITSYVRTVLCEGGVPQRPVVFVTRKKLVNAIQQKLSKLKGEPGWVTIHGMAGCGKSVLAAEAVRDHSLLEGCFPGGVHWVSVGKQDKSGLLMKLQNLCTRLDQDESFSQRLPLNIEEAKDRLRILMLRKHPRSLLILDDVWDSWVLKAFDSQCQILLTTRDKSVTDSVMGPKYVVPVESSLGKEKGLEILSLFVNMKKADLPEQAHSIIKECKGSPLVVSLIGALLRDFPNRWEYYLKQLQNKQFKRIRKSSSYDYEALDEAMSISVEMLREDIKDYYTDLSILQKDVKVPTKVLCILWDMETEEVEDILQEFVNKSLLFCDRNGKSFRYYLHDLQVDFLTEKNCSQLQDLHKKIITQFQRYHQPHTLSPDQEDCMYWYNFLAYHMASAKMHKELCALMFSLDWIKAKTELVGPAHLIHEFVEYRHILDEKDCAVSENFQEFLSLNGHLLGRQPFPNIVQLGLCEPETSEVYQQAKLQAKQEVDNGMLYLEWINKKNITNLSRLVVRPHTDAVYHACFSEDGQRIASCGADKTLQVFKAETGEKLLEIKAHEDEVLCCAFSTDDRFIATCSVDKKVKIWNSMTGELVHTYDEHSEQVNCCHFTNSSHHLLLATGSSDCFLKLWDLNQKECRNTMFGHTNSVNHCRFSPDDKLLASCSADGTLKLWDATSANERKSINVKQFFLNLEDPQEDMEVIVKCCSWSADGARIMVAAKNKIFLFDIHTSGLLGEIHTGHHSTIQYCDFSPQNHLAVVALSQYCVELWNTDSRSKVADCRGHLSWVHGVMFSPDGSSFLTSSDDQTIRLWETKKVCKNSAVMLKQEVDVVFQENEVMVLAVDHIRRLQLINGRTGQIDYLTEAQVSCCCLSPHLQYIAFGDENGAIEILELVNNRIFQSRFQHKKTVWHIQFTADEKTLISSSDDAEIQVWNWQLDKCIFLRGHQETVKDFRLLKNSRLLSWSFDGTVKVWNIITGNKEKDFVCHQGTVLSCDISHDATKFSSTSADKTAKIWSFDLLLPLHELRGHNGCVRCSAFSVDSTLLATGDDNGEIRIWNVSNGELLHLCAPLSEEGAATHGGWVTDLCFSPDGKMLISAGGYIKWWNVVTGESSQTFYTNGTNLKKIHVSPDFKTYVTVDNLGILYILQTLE

Escherichia coli = assay: microbe, parasite or virus in culture
[2] = biological target: T2, Tyrosine-protein phosphatase non-receptor type 7 (Homo sapiens, UniProt P35236); type: functional
T2 sequence (P35236 whole entry): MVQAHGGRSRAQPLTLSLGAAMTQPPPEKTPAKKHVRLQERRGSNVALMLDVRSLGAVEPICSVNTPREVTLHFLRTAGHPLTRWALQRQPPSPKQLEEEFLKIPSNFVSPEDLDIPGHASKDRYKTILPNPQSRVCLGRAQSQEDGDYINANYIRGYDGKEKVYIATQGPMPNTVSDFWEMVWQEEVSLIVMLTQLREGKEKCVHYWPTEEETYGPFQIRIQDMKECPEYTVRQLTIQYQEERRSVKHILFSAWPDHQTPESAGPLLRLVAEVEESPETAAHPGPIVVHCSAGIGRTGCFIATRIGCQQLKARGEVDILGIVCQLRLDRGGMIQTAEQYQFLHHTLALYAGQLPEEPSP

[3] = biological target: Glyceraldehyde-3-phosphate dehydrogenase (Homo sapiens, UniProt P04406)
[4] = biological target: T3, Dual specificity protein phosphatase 6 (Rattus norvegicus, UniProt Q64346)
T3 sequence (Q64346 whole entry): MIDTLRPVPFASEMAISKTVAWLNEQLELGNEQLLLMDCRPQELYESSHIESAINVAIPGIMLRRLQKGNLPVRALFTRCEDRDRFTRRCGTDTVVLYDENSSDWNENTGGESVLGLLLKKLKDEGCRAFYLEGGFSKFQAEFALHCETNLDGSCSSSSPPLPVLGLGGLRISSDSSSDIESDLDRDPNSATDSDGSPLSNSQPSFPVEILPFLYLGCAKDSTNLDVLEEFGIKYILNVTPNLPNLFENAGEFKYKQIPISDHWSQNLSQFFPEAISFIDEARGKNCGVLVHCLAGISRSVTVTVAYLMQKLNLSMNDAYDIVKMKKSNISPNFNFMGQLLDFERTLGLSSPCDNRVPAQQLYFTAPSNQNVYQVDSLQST

[5] = biological target: T3, Dual specificity protein phosphatase 6; type: functional
[6] = Luminescence Cell-Based Dose Retest to Confirm Inhibitors of Cancer Stem Cells. [Related pubchem assays (depositor defined):AID2717, AID2721]; type: functional; settings: Homo sapiens
[7] = cytotoxicity in HMLE control line with eGFP shRNA, dose response, counter-screen for HMLE_sh_ECad selective toxicity project, cell-based, HMLE_sh_eGFP, luminescence (AID 463074); type: functional, Homo sapiens;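 also: HMLE human mammary epithelial cells expressing control shRNA against eGFP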
[8] = biological target: T4, Short transient receptor potential channel 4 (Mus musculus, UniProt Q9QUQ5); assay: mouse TRPC4 channel activators, dose response, cell-based, HEK293 TRPC4/mu-opioid, Fluo-4 calcium (AID 434937); type: functional
T4 sequence (Q9QUQ5 whole entry): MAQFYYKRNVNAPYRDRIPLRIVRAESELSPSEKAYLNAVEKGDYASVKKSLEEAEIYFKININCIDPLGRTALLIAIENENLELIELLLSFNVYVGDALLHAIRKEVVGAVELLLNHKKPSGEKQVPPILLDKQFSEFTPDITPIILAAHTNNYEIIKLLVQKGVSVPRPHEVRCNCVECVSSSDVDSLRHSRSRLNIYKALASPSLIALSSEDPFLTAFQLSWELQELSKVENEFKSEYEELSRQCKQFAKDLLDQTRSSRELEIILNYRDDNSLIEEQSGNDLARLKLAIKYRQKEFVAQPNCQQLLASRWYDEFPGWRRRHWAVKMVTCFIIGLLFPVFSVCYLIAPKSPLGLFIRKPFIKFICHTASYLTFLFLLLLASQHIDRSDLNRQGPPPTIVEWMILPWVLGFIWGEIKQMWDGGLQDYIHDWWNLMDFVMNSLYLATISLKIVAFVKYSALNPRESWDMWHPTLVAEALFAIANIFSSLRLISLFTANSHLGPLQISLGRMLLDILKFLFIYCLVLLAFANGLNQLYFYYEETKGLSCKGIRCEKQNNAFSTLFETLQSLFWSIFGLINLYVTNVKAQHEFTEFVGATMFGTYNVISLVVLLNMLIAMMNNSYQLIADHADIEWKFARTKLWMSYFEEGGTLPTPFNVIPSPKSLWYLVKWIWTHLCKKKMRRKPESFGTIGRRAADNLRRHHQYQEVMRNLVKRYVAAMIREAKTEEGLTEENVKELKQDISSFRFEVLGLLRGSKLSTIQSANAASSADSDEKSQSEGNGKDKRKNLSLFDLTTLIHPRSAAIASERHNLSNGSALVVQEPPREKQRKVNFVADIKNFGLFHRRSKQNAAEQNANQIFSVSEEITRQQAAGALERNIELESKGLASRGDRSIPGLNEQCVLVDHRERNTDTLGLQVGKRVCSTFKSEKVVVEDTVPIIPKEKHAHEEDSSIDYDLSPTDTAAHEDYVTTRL

[9] = biological target: Delta-type opioid receptor (Homo sapiens, UniProt P41143); assay: Counterscreen for agonists of heterodimerization of the mu 1 (OPRM1) and delta 1 (OPRD1) opioid receptors: Luminescence-based cell-based high throughput dose response assay to identify agonists of OPRD1 homodimerization. [Related pubchem assays (depositor defined):AID504326, AID504355, AID504692, AID504904, AID504905]; type: functional
Mu-type opioid receptor = Mu-type opioid receptor (Homo sapiens, UniProt P35372); assay: Counterscreen for agonists of heterodimerization of the mu 1 (OPRM1) and delta 1 (OPRD1) opioid receptors: Luminescence-based cell-based high throughput dose response assay to identify agonists of OPRM1 homodimerization.; type: functional;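 also: U2OS cells expressing OPRM1 and beta-arrestin as split beta-galactosidase partners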
[10] = biological target: Opioid receptors; mu & delta (Homo sapiens, UniProt P41143+P35372); assay: agonists of MOR-DOR heterodimerization, dose response, cell-based, luminescence (AID 588407); type: functional
[11] = biological target: 5-hydroxytryptamine receptor 5A (Homo sapiens, UniProt P47898); assay: Counterscreen for agonists of OPRM1-OPRD1 heterodimerization: luminescence-based cell-based high throughput dose response assay to identify agonists of 5-hydroxytryptamine (serotonin) 5A receptor (HTR5A). [Related pubchem assays (depositor defined):AID504326, AID504355, AID504692, AID504904, AID504905]; type: functional
[12] = biological target: G-protein coupled receptor 35 (Homo sapiens, UniProt Q9HC97); assay: GPR35 antagonists blocking zaprinast-driven arrestin recruitment, primary screen, imaging, U2OS, beta-arrestin-GFP, zaprinast agonist (AID 2058); type: functional;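 also: antagonist potency meaning inhibition of agonist-induced arrestin redistribution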
[13] = biological target: T5, Voltage-gated N-type calcium channel alpha-1B subunit/Amyloid beta A4 precursor protein-binding family A member 1 (Homo sapiens, UniProt Q00975+Q02410); type: protein assay
[14] = biological target: T5, Voltage-gated N-type calcium channel alpha-1B subunit/Amyloid beta A4 precursor protein-binding family A member 1; type: protein assay; remark: listed apart in the source
[15] = biological target: T6, Beta-adrenergic receptor kinase 1 (Homo sapiens, UniProt P25098); assay: Inhibitors of aptamer binding to bead-bound beta-adrenergic receptor kinase 1 by flow cytometry, biochemical, cherry pick 2, EC50 (AID 504815)
T6 sequence (P25098 whole entry): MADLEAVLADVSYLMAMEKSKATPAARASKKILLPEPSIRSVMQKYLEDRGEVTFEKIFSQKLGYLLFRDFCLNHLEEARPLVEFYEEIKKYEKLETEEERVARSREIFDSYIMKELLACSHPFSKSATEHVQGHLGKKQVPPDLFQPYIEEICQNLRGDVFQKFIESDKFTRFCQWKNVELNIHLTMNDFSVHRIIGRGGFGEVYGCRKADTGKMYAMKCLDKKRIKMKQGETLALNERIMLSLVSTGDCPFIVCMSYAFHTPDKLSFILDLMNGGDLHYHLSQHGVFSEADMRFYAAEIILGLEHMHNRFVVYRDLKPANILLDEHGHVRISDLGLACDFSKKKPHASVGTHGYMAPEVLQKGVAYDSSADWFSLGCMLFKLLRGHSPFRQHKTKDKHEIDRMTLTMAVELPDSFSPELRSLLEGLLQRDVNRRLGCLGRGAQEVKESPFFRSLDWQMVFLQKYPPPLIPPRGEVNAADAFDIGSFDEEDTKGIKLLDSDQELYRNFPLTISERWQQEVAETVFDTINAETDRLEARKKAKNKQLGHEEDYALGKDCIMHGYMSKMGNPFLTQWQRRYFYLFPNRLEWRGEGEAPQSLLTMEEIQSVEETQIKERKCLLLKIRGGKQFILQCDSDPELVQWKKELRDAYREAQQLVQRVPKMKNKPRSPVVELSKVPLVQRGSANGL

[16] = biological target: T6, Beta-adrenergic receptor kinase 1; assay: GRK2 inhibitors displacing RNA aptamer, dose response, biochemical, flow cytometry beads, FAM-aptamer, powder set 1 (AID 588720)
[17] = biological target: T7, Carboxy-terminal domain RNA polymerase II polypeptide A small phosphatase 1 (Homo sapiens, UniProt Q9GZU7); assay: inhibitors of CTDSP1, concentration-response testing, biochemical assay, absorbance-based, actives from ultra-high-throughput screening (AID 540297); type: functional
T7 sequence (Q9GZU7 whole entry): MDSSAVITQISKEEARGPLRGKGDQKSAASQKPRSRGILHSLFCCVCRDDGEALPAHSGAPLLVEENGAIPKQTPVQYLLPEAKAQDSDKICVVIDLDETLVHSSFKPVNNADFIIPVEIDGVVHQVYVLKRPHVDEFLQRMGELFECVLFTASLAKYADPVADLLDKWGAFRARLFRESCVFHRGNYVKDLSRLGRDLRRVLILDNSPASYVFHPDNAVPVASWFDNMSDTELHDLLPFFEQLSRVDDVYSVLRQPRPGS

[18] = biological target: T8, Small ubiquitin-related modifier 1 (Homo sapiens, UniProt P63165); assay: inhibitors of SUMO1 peptide binding, dose response, biochemical, fluorescence polarization, uHTS hits (AID 624382); type: functional; settings: read-out: IC50_Mean
[19] = biological target: T8, Small ubiquitin-related modifier 1; assay: inhibitors of SUMO1 partner interactions, dose response, biochemical, FRET (AID 624383); type: functional; settings: read-out: IC50_Mean

T8 sequence (P63165 whole entry): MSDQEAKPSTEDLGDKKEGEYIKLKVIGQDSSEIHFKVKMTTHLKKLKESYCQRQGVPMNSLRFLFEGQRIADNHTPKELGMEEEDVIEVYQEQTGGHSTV
T5 sequence (Q00975 whole entry): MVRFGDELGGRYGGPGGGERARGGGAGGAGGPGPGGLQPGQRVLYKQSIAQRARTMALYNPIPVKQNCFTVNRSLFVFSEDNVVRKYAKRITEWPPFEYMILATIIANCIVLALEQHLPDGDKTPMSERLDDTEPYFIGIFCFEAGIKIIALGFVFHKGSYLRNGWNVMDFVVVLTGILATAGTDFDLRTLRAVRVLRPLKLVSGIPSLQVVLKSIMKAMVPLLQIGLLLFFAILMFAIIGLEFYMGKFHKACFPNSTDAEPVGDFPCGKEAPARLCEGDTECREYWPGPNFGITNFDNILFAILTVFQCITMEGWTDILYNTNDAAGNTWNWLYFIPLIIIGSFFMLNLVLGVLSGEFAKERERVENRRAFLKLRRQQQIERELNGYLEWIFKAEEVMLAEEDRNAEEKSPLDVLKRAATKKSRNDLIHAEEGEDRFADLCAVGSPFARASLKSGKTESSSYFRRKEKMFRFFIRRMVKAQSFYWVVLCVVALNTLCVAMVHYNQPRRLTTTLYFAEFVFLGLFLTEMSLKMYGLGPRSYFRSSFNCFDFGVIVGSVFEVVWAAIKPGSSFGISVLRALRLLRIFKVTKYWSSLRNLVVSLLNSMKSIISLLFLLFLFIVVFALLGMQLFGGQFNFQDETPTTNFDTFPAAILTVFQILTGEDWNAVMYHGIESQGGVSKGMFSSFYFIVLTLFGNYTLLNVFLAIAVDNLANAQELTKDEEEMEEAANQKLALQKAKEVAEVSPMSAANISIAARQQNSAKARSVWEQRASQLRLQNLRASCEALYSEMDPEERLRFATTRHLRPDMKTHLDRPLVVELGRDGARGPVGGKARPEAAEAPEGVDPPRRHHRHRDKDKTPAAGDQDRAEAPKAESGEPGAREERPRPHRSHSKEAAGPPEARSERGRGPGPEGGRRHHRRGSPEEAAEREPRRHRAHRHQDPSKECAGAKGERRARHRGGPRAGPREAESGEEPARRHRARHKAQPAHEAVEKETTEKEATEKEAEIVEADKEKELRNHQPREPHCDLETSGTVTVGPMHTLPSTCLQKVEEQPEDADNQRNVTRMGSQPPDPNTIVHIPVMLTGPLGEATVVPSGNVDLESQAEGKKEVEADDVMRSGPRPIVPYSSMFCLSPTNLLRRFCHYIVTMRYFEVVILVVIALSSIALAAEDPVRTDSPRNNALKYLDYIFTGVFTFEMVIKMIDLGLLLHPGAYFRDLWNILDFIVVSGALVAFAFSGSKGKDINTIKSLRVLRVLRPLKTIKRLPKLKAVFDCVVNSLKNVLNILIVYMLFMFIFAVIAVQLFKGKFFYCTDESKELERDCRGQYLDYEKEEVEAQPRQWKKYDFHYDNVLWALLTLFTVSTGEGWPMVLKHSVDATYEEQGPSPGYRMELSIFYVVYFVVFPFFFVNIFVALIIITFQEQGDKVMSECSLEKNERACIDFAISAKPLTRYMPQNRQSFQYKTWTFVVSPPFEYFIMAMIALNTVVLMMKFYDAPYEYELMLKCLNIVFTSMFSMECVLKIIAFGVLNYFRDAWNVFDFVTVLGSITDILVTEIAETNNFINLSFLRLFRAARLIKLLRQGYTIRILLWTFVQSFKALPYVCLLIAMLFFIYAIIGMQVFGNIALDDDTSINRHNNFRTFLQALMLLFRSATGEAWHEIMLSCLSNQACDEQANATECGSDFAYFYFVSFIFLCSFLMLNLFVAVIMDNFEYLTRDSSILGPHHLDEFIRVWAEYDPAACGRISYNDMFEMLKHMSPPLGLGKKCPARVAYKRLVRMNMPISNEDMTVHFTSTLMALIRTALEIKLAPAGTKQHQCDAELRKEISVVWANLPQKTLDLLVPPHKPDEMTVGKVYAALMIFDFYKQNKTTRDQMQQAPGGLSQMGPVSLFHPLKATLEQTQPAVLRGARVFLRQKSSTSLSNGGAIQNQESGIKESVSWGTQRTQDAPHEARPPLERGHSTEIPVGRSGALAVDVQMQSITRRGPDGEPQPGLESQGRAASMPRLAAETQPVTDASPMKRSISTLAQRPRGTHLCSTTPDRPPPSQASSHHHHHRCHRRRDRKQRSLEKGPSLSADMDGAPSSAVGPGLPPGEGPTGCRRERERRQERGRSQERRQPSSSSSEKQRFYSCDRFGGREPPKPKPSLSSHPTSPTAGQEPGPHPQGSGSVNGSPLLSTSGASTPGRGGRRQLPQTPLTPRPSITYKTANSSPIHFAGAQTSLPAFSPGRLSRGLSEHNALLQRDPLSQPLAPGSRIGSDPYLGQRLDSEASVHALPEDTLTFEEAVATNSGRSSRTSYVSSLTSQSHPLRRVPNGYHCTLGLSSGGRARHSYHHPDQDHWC
T5 sequence (Q02410 whole entry): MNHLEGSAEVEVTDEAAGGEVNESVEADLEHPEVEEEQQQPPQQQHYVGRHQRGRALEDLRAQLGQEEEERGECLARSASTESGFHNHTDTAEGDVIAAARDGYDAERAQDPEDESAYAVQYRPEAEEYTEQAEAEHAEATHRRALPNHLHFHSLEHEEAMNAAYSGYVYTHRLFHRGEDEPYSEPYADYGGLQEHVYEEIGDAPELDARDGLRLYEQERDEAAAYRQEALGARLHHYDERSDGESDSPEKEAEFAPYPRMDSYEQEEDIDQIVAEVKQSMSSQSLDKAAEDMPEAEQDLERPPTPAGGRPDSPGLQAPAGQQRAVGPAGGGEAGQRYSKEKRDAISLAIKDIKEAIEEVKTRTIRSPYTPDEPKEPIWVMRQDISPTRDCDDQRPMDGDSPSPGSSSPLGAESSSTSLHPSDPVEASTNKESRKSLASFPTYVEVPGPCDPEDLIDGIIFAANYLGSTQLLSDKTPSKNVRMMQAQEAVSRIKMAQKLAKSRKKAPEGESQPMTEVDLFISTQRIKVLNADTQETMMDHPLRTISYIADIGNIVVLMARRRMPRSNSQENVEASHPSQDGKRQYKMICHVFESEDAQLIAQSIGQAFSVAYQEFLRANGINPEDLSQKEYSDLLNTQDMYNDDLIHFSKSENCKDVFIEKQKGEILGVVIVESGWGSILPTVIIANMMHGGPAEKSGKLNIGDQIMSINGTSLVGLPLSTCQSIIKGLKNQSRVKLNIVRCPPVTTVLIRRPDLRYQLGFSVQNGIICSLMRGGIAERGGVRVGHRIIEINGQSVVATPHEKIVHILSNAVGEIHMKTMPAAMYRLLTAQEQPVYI
5-hydroxytryptamine receptor 5A, sequence (P47898 whole entry): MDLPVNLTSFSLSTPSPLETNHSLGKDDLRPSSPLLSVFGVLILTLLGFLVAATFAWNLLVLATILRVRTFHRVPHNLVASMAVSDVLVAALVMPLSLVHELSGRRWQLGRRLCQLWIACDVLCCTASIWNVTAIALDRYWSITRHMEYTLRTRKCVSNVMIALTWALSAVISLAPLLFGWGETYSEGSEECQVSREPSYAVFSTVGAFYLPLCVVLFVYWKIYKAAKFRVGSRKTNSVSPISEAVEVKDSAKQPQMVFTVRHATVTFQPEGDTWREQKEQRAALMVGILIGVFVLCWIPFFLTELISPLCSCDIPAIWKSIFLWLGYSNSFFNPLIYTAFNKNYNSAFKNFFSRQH
Mu-type opioid receptor, sequence (P35372 whole entry): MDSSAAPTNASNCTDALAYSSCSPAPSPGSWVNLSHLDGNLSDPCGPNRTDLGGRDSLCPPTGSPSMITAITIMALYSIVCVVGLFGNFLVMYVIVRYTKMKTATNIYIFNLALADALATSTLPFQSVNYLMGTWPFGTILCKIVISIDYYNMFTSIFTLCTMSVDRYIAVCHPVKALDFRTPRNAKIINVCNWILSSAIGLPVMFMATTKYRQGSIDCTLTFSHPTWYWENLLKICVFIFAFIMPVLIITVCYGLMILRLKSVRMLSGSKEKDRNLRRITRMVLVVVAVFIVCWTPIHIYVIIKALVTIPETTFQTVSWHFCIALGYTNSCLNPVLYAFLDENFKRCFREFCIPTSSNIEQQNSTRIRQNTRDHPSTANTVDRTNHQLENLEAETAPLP
Glyceraldehyde-3-phosphate dehydrogenase, sequence (P04406 whole entry): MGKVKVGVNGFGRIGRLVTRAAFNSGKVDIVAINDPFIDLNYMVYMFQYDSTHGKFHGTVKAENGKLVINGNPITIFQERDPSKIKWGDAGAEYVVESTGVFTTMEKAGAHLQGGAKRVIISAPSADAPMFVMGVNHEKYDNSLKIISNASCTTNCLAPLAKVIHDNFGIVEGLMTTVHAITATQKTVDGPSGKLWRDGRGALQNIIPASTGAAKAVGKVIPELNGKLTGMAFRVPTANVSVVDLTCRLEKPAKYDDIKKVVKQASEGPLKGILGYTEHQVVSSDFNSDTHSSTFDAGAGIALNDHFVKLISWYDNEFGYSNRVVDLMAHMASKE
G-protein coupled receptor 35, sequence (Q9HC97 whole entry): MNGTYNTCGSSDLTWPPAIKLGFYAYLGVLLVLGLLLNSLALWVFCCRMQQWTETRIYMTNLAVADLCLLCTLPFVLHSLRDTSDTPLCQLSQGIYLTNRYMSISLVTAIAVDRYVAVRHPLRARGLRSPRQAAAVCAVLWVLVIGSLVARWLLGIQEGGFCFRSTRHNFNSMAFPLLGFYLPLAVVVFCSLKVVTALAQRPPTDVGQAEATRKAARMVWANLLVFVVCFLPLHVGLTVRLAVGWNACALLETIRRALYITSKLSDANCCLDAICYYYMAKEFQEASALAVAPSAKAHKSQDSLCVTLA
Delta-type opioid receptor, sequence (P41143 whole entry): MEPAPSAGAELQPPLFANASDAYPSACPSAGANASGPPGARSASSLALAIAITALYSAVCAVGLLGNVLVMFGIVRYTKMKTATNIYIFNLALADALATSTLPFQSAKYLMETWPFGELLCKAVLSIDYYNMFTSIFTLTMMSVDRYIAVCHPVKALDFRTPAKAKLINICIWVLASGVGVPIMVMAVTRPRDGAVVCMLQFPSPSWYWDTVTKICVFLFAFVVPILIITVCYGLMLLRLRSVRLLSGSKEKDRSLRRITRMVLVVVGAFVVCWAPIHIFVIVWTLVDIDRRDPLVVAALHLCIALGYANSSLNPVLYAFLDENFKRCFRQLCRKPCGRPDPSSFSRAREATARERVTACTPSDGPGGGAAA

EC50 [1]: 10.9 µM (active)
Compound: Cc1cc(C)n(CC(C)C(=O)O)n1 (stereo unspecified)

Compound: Cc1ccc(-n2nnnc2SCC(=O)Nc2ccc3c(c2)OCCO3)cc1C
AC50 (Escherichia coli): 30.9 µM (active)

IC50 [2]: > 100 µM (not active)
IC50 [3]: > 100 µM (not active)
IC50 [4]: > 100 µM (inactive)
IC50 [5]: > 100 µM (inactive)
Compound: O=c1nc(NCCc2ccccc2)[nH]c(=O)n1-c1ccccc1

Compound: O=C(CCS(=O)(=O)c1ccccc1)Nc1nc(-c2ccc(F)cc2)cs1
AC50 [6]: 10.4 µM (active)
AC50 [7]: 143 µM (active)

EC50 [8]: 0.084 µM (active)
EC50 [9]: > 92.5 µM (inactive)
EC50 (Mu-type opioid receptor): 50.3 µM (inactive)
EC50 [10]: > 3.425 µM
EC50 [11]: > 92.5 µM (inactive)
Compound: COc1ccccc1N1CCN(C(c2cccs2)C(C)NC(=O)c2ccco2)CC1 (stereo unspecified)

Compound: NS(=O)(=O)c1ccc(CCNC(=O)CCS(=O)(=O)c2ccc(Br)cc2)cc1
IC50 [12]: 2.23 µM (active)
IC50 [13]: 40.9 µM (active)
IC50 [14]: > 50 µM (inactive)
EC50 [15]: 5.2 µM (active)
EC50 [16]: 1.21 µM (active)
IC50 [17]: 4.17 µM (active)
IC50 [18]: > 66.6 µM (inactive)
IC50 [19]: 9.08 µM (active)
